Key:
spasticity = settings: Baker 2001; cited from earlier work
neuropathic pain = settings: rats; WO 02/087569; cited from earlier work
[1] = tested on: acute thermal nociception; settings: rats; WO 02/087569; cited from earlier work
Rat FAAH-1 = target: T1, Rat FAAH-1 (Rattus norvegicus, UniProt P97612); assay: Assay Method 2: rat FAAH-1 assay, 3H-anandamide hydrolysis in homogenate of SK-N-MC cells transfected with rat FAAH
T1 sequence (P97612 1-579): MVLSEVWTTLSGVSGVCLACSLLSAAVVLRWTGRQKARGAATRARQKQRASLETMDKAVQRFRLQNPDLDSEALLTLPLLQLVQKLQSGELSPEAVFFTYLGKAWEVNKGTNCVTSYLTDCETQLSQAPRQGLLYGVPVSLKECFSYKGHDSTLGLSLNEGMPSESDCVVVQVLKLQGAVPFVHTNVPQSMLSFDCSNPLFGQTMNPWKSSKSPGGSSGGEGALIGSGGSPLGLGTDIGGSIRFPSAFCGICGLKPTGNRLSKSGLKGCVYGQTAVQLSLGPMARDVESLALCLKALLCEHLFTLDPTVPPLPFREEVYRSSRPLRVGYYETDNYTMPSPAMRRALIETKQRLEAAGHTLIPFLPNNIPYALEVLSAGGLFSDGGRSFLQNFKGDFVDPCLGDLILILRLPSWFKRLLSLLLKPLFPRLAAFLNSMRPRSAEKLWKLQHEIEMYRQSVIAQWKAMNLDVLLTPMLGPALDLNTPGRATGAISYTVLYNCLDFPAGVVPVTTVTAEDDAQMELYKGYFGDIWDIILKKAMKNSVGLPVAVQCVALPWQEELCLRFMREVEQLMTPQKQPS
Method: The assay mixture consisted of 50 μL of the cell homogenate, 10 μL of the test compound, and 40 μL of anandamide [1-^3H-ethanolamine] (^3H-AEA, Perkin-Elmer, 10.3 Ci/mmol), which was added last, for a final tracer concentration of 80 nM. The reaction mixture was incubated at rt for 1 h. During the incubation, 96-well Multiscreen filter plates (catalog number MAFCNOB50; Millipore, Bedford, Mass., USA) were loaded with 25 μL of activated charcoal (Multiscreen column loader, catalog number MACL09625, Millipore) and washed once with 100 μL of MeOH. […] After the 1 h incubation, 60 μL of the reaction mixture were transferred to the charcoal plates, which were then assembled on top of the DYNEX plates using Centrifuge Alignment Frames (catalog number MACF09604, Millipore). The unbound labeled ethanolamine was centrifuged through to the bottom plate (5 min at 2000 rpm), which was preloaded with the scintillant, as described above. The plates were sealed and left at rt for 1 h before counting on a Hewlett Packard TopCount.

FAAH [2] = target: T2, FAAH (Homo sapiens, UniProt O00519); assay: Assay Method 1: FAAH assay, 3H-anandamide hydrolysis in homogenate of T84 cells or SK-N-MC cells transfected with human FAAH
T2 sequence (O00519 1-579): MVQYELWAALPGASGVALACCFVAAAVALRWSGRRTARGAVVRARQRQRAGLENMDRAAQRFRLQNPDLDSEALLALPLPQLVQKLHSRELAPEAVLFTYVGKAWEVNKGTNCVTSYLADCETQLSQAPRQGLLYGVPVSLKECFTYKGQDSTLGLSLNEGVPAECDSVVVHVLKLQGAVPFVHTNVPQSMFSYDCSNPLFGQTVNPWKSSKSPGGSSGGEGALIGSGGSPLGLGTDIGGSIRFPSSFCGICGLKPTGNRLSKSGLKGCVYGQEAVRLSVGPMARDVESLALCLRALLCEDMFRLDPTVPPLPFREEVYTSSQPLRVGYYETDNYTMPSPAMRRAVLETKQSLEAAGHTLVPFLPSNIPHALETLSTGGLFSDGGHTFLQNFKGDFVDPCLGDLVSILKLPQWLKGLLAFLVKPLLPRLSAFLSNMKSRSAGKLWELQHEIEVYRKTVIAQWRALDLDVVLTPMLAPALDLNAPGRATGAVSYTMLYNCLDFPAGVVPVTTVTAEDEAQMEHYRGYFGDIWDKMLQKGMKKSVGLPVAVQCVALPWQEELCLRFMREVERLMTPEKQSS

thermal nociception [3] = settings: rat; cited from earlier work
FAAH [4] = target: T2, FAAH; settings: reported; cited from earlier work
thermal nociception [5] = settings: rats; WO 04/033652; cited from earlier work
anxiety = settings: rats; Kathuria 2003; cited from earlier work
nociception = settings: rat; Kathuria 2003; cited from earlier work

IC50 (Rat FAAH-1) [nM]	IC50 (FAAH [2]) [nM]	Compound	other results
–	–	CCCCCCCCCCCCCCCCS(=O)(=O)F [AM374]	reduction of spasticity in CREAE mice (spasticity): significantly reduce spasticity
–	–	Cc1nc(-c2ccccc2)c(-c2ccccc2)n1CCCCCCNC(=O)Oc1ccccc1F [BMS-1]	analgesic effect in Chung spinal nerve ligation model (neuropathic pain): analgesic effect; analgesic effect in Hargraves test [1]: analgesic effect
538	28	CC(C)(C)c1ccc(-c2cc(NCC(O)c3ccccc3)ncn2)cc1 (stereo not drawn) [Example 224, 2-({6-[4-(1,1-Dimethylethyl)phenyl]pyrimidin-4-yl}amino)-1-phenylethanol]	–
128	11	CSc1ccc(-c2cc(NCC(O)c3ccccc3)ncn2)cc1 (stereo not drawn) [Example 225, 2-[6-(4-Methylsulfanyl-phenyl)-Pyrimidin-4-ylamino]-1-phenyl-ethanol]	–
663	341	N#Cc1ccc(-c2cc(NCC(O)c3ccccc3)ncn2)cc1 (stereo not drawn) [Example 226, 4-{6-[(2-Hydroxy-2-phenylethyl)amino]pyrimidin-4-yl}benzonitrile]	–
216	33	OC(CNc1cc(-c2cc3ccccc3s2)ncn1)c1ccccc1 (stereo not drawn) [Example 227, 2-(6-Benzo[b]thiophen-2-yl-pyrimidin-4-ylamino)-1-phenyl-ethanol]	–
66	26	CC(=O)c1ccc(-c2cc(NCC(O)c3ccccc3)ncn2)cc1 (stereo not drawn) [Example 228, 1-(4-{6-[(2-Hydroxy-2-phenylethyl)amino]pyrimidin-4-yl}phenyl)ethanone]	–
1000	150	OC(CNc1cc(-c2ccc3c(c2)OCO3)ncn1)c1ccccc1 (stereo not drawn) [Example 232, 2-(6-Benzo[1,3]dioxol-5-yl-pyrimidin-4-ylamino)-1-phenyl-ethanol]	–
> 10000	> 10000	O=[N+]([O-])c1cccc(-c2cc(NCC(O)c3ccccc3)ncn2)c1 (stereo not drawn) [Example 234, 2-[6-(3-Nitro-phenyl)-pyrimidin-4-ylamino]-1-phenyl-ethanol]	–
324	21	OC(CNc1cc(-c2ccc3ccccc3c2)ncn1)c1ccccc1 (stereo not drawn) [Example 235, 2-[(6-Naphthalen-2-ylpyrimidin-4-yl)amino]-1-phenylethanol]	–
4000	700	CC(=O)c1ccc(-c2cc(NCC(O)c3ccccc3)ncn2)s1 (stereo not drawn) [Example 236, 1-{5-[6-(2-Hydroxy-2-phenyl-ethylamino)-pyrimidin-4-yl]-thiophen-2-yl}-ethanone]	–
> 10000	> 10000	OC(CNc1cc(-c2c(F)cccc2F)ncn1)c1ccccc1 (stereo not drawn) [Example 237, 2-[6-(2,6-Difluoro-phenyl)-pyrimidin-4-ylamino]-1-phenyl-ethanol]	–
> 10000	7000	Oc1ccc(-c2cc(NCC(O)c3ccccc3)ncn2)cc1 (stereo not drawn) [Example 238, 4-[6-(2-Hydroxy-2-phenyl-ethylamino)-pyrimidin-4-yl]-phenol]	–
> 10000	> 10000	OC(CNc1cc(-c2cc(C(F)(F)F)cc(C(F)(F)F)c2)ncn1)c1ccccc1 (stereo not drawn) [Example 239, 2-[6-(3,5-Bis-trifluoromethyl-phenyl)-pyrimidin-4-ylamino]-1-phenyl-ethanol]	–
> 10000	> 10000	CC(=O)Nc1cccc(-c2cc(NCC(O)c3ccccc3)ncn2)c1 (stereo not drawn) [Example 242, N-{3-[6-(2-Hydroxy-2-phenyl-ethylamino)-pyrimidin-4-yl]-phenyl}-acetamide]	–
> 10000	> 10000	OC(CNc1cc(-c2cccs2)ncn1)c1ccccc1 (stereo not drawn) [Example 244, 1-Phenyl-2-(6-thiophen-2-yl-pyrimidin-4-ylamino)-ethanol]	–
> 10000	> 10000	OC(CNc1cc(-c2ccsc2)ncn1)c1ccccc1 (stereo not drawn) [Example 245, 1-Phenyl-2-(6-thiophen-3-yl-pyrimidin-4-ylamino)-ethanol]	–
–	–	O=C(CCCCCCc1ccccc1)c1ncc(-c2ccccn2)o1 [OL-135]	analgesic efficacy/activity in hot plate test (thermal nociception [3]): analgesic activity; inhibition of FAAH (FAAH [4]): potent inhibitor; analgesic activity in tail emersion test (thermal nociception [5]): analgesic activity
–	–	NC(=O)c1cccc(-c2cccc(OC(=O)NC3CCCCC3)c2)c1 [URB-597]	efficacy in zero plus maze model of anxiety (anxiety): efficacy; analgesic efficacy/activity in hot plate test (thermal nociception [3]): analgesic efficacy; analgesic efficacy in formalin test (nociception): analgesic efficacy
